# Experimental data published in ChEMBL document CHEMBL3784945, “Isoindolinone compounds active as Kv1.5 blockers identified using a multicomponent reaction approach” (Bioorg Med Chem Lett, 2016).
# Target: T1, Potassium voltage-gated channel subfamily A member 5 (Homo sapiens, UniProt P22460)
# Assay: Inhibition of human Kv1.5 channel by Rb-flux assay
# Settings: not given
# T1 sequence (P22460 whole entry): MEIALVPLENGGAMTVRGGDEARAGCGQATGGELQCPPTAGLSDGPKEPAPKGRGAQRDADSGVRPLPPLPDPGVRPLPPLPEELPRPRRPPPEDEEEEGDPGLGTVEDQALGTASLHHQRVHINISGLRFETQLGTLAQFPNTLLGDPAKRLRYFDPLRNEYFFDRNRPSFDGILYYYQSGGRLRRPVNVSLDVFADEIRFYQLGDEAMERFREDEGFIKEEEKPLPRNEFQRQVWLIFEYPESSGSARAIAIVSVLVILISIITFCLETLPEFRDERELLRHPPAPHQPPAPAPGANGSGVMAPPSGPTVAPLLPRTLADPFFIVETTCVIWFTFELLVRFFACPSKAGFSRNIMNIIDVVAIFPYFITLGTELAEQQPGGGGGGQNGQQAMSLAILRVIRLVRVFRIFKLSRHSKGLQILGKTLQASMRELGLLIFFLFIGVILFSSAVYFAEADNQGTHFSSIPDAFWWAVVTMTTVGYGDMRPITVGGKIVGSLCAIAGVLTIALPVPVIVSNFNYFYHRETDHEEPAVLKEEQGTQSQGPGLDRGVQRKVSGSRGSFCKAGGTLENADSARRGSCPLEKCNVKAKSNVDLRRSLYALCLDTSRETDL
row,SMILES,IC50 [µM]
1,CCCCNC(=O)C1c2ccccc2C(=O)N1CC(C)c1ccc(Cl)cc1 (racemic),0.7
2,COc1ccc2c(c1)C(=O)N(Cc1ccccc1-c1ccccc1)C2C(=O)NC(C)(C)C (racemic),11.3
3,Cc1c(OC(F)F)ccc2c1C(=O)N(Cc1ccccc1-c1ccccc1)C2C(=O)NC(C)(C)C (racemic),1.2
4,Cc1c(O)ccc2c1C(=O)N(Cc1ccccc1-c1ccccc1)C2C(=O)NC(C)(C)C (racemic),3.2
5,O=C(NCc1ccncc1)C1c2ccccc2C(=O)N1Cc1ccccc1-c1ccccc1 (racemic),13
6,CC(C)(C)NC(=O)C1c2cc(Cl)ccc2C(=O)N1C(c1cccnc1)c1cccnc1 (racemic),> 32
7,Cc1c(OS(C)(=O)=O)ccc2c1C(=O)N(Cc1ccccc1-c1ccccc1)C2C(=O)NC(C)(C)C (racemic),10.5
8,COCCOCCNC(=O)C1c2cc(F)ccc2C(=O)N1CC(C)c1ccc(Cl)cc1 (racemic),> 32
9,CC(c1ccccc1)N1C(=O)c2ccccc2C1C(=O)NC(C)(C)CO (racemic),> 32
10,CC(C)(C)NC(=O)C1c2ccc(C#N)cc2C(=O)N1Cc1ccccc1-c1ccccc1 (racemic),37
11,CC(C)(C)NC(=O)C1c2ccc(NS(C)(=O)=O)cc2C(=O)N1Cc1ccccc1-c1ccccc1 (racemic),17
12,CC(C)(C)NC(=O)C1c2ccc(O)cc2C(=O)N1Cc1ccccc1-c1ccccc1 (racemic),8.4
13,Cc1c(NS(C)(=O)=O)ccc2c1C(=O)N(Cc1ccccc1-c1ccccc1)C2C(=O)NC(C)(C)C (racemic),31
14,"Cc1c(O)ccc2c1C(=O)N(Cc1ccccc1-c1ccccc1)C2C(=O)NC(C)(C)C (single isomer, unassigned)",1.1
15,"Cc1c(O)ccc2c1C(=O)N(Cc1ccccc1-c1ccccc1)C2C(=O)NC(C)(C)C (single isomer, unassigned; enantiomer 2)",17

# Test system: not listed separately
# Assay: Solubility of crystalline form of compound
# Type: physicochemical
# Settings: not given
row,SMILES,solubility [µM]
1,"CCCNC(=O)C1c2ccccc2C(=O)N1CC(C)c1ccc(Cl)cc1 (single isomer, unassigned; isomer 1)",21

# Target: Cytochrome P450 3A4 (Homo sapiens, UniProt P08684)
# Assay: Inhibition of CYP3A4 (unknown origin)
# Type: ADME
# Settings: not given
# Sequence of Cytochrome P450 3A4 (P08684 whole entry): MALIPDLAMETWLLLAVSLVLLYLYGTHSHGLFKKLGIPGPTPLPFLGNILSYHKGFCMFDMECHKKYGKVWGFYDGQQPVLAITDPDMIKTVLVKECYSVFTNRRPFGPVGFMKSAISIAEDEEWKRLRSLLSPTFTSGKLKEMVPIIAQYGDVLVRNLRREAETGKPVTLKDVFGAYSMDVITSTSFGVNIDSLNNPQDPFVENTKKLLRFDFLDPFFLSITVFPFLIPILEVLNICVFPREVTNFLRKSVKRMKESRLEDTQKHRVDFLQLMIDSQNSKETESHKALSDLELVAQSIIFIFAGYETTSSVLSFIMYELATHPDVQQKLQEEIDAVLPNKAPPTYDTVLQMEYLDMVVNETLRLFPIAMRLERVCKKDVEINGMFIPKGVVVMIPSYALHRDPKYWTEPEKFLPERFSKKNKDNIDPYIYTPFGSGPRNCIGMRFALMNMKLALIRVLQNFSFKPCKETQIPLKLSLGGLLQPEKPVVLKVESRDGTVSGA
row,SMILES,IC50 [µM]
1,"CC(C)(CN1C(=O)c2ccccc2C1C(=O)NCCCF)c1ccc(Cl)cc1 (single isomer, unassigned; enantiomer 1)",> 50
2,"CCCNC(=O)C1c2ccccc2C(=O)N1CC(C)c1ccc(Cl)cc1 (single isomer, unassigned; isomer 1)",> 50

# Target: Voltage-gated inwardly rectifying potassium channel KCNH2 (Homo sapiens, UniProt Q12809)
# Assay: Inhibition of human ERG
# Settings: not given
# Sequence of Voltage-gated inwardly rectifying potassium channel KCNH2 (Q12809 whole entry): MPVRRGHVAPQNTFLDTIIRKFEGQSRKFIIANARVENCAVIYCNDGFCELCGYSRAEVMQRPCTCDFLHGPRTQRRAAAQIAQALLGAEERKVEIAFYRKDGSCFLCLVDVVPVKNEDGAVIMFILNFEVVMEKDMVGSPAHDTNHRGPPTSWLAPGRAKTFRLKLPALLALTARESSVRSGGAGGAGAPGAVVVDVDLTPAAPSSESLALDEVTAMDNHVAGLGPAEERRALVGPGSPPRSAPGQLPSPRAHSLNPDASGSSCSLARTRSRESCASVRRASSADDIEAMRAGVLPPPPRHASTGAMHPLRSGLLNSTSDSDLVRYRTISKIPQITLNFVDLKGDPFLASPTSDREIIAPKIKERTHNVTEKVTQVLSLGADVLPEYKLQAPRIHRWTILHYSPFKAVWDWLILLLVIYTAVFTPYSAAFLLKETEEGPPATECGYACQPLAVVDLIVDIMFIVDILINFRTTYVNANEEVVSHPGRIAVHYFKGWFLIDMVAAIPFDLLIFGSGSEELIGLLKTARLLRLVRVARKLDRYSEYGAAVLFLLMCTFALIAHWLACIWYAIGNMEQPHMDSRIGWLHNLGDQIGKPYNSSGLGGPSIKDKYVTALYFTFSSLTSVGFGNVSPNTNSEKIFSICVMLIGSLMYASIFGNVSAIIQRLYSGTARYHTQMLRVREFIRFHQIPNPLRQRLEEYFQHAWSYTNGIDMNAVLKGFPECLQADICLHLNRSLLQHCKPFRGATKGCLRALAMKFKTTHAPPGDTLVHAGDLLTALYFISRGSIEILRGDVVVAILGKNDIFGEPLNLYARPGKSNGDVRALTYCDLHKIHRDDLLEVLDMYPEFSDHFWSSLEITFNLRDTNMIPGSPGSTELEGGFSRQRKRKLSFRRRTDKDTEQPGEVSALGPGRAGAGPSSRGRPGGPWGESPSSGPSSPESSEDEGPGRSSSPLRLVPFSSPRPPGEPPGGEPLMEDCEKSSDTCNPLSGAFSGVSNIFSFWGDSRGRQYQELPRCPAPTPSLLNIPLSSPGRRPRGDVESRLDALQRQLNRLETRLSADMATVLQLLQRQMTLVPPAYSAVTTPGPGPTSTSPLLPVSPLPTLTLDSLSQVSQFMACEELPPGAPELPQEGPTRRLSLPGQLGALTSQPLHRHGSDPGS
row,SMILES,IC50 [µM]
1,CC(C)(C)NC(=O)C1c2ccccc2C(=O)N1Cc1ccccc1-c1ccc(F)cc1 (stereo unspecified),56
2,CC(C)(C)NC(=O)C1c2ccccc2C(=O)N1Cc1ccc(F)cc1-c1ccc(F)cc1 (stereo unspecified),> 33
3,Cc1c(O)ccc2c1C(=O)N(Cc1ccccc1-c1ccc(F)cc1)C2C(=O)NC(C)(C)C (stereo unspecified),> 32
4,CCCCNC(=O)C1c2ccccc2C(=O)N1CC(C)c1ccc(Cl)cc1 (racemic),32
5,COc1ccc2c(c1)C(=O)N(Cc1ccccc1-c1ccccc1)C2C(=O)NC(C)(C)C (racemic),30
6,Cc1c(OC(F)F)ccc2c1C(=O)N(Cc1ccccc1-c1ccccc1)C2C(=O)NC(C)(C)C (racemic),22
7,Cc1c(O)ccc2c1C(=O)N(Cc1ccccc1-c1ccccc1)C2C(=O)NC(C)(C)C (racemic),46
8,O=C(NCc1ccncc1)C1c2ccccc2C(=O)N1Cc1ccccc1-c1ccccc1 (racemic),> 33
9,CC(c1ccccc1)N1C(=O)c2ccccc2C1C(=O)NCc1ccccc1 (racemic),> 33
10,Cc1c(OS(C)(=O)=O)ccc2c1C(=O)N(Cc1ccccc1-c1ccccc1)C2C(=O)NC(C)(C)C (racemic),> 32
11,COCCOCCNC(=O)C1c2cc(F)ccc2C(=O)N1CC(C)c1ccc(Cl)cc1 (racemic),> 33
12,CC(c1ccccc1)N1C(=O)c2ccccc2C1C(=O)NC(C)(C)CO (racemic),> 33
13,CC(C)(C)NC(=O)C1c2ccccc2C(=O)N1Cc1ccccc1-c1ccccc1 (racemic),62
14,CC(C)(C)NC(=O)C1c2ccc(NS(C)(=O)=O)cc2C(=O)N1Cc1ccccc1-c1ccccc1 (racemic),15
15,CC(C)(C)NC(=O)C1c2ccc(O)cc2C(=O)N1Cc1ccccc1-c1ccccc1 (racemic),45
16,Cc1c(NS(C)(=O)=O)ccc2c1C(=O)N(Cc1ccccc1-c1ccccc1)C2C(=O)NC(C)(C)C (racemic),> 33
17,"Cc1c(O)ccc2c1C(=O)N(Cc1ccccc1-c1ccccc1)C2C(=O)NC(C)(C)C (single isomer, unassigned)",> 32
18,"CC(C)(CN1C(=O)c2ccccc2C1C(=O)NCCCF)c1ccc(Cl)cc1 (single isomer, unassigned; enantiomer 1)",> 33
19,"Cc1c(O)ccc2c1C(=O)N(Cc1ccccc1-c1ccccc1)C2C(=O)NC(C)(C)C (single isomer, unassigned; enantiomer 2)",26

# Test system: not listed separately
# Assay: Clearance in iv dosed dog
# Type: ADME, organism-based, Canis lupus familiaris
# Settings: in vivo
row,SMILES,clearance [mL/min/kg]
1,"CC(C)(CN1C(=O)c2ccccc2C1C(=O)NCCCF)c1ccc(Cl)cc1 (single isomer, unassigned; enantiomer 1)",18
2,"CCCNC(=O)C1c2ccccc2C(=O)N1CC(C)c1ccc(Cl)cc1 (single isomer, unassigned; isomer 1)",6

# Target: T1, Potassium voltage-gated channel subfamily A member 5
# Assay: Inhibition of human Kv1.5 channel by QPatch-clamp method
# Settings: not given
row,SMILES,IC50 [µM]
1,CC(C)(C)NC(=O)C1c2ccccc2C(=O)N1Cc1ccccc1-c1ccc(F)cc1 (stereo unspecified),6
2,CC(C)(C)NC(=O)C1c2ccccc2C(=O)N1Cc1ccc(F)cc1-c1ccc(F)cc1 (stereo unspecified),1.4
3,Cc1c(O)ccc2c1C(=O)N(Cc1ccccc1-c1ccc(F)cc1)C2C(=O)NC(C)(C)C (stereo unspecified),2.7
4,CCCCNC(=O)C1c2ccccc2C(=O)N1CC(C)c1ccc(Cl)cc1 (racemic),1.1
5,Cc1c(O)ccc2c1C(=O)N(Cc1ccccc1-c1ccccc1)C2C(=O)NC(C)(C)C (racemic),2
6,CC(c1ccccc1)N1C(=O)c2ccccc2C1C(=O)NC(C)(C)CO (racemic),> 10
7,CC(C)(C)NC(=O)C1c2ccc(NS(C)(=O)=O)cc2C(=O)N1Cc1ccccc1-c1ccccc1 (racemic),7.6
8,CC(C)(C)NC(=O)C1c2ccc(O)cc2C(=O)N1Cc1ccccc1-c1ccccc1 (racemic),6.9
9,Cc1c(NS(C)(=O)=O)ccc2c1C(=O)N(Cc1ccccc1-c1ccccc1)C2C(=O)NC(C)(C)C (racemic),4.5
10,"Cc1c(O)ccc2c1C(=O)N(Cc1ccccc1-c1ccccc1)C2C(=O)NC(C)(C)C (single isomer, unassigned)",1.3
11,"CC(C)(CN1C(=O)c2ccccc2C1C(=O)NCCCF)c1ccc(Cl)cc1 (single isomer, unassigned; enantiomer 1)",0.7
12,"Cc1c(O)ccc2c1C(=O)N(Cc1ccccc1-c1ccccc1)C2C(=O)NC(C)(C)C (single isomer, unassigned; enantiomer 2)",3.4
13,"CCCNC(=O)C1c2ccccc2C(=O)N1CC(C)c1ccc(Cl)cc1 (single isomer, unassigned; isomer 1)",0.4

# Test system: not listed separately
# Assay: Absolute bioavailability in dog
# Type: ADME, organism-based, Canis lupus familiaris
# Settings: in vivo
row,SMILES,bioavailability [%]
1,"CC(C)(CN1C(=O)c2ccccc2C1C(=O)NCCCF)c1ccc(Cl)cc1 (single isomer, unassigned; enantiomer 1)",41
2,"CCCNC(=O)C1c2ccccc2C(=O)N1CC(C)c1ccc(Cl)cc1 (single isomer, unassigned; isomer 1)",63

# Test system: not listed separately
# Assay: Lipophilicity, log D of the compound by HPLC analysis
# Type: physicochemical
# Settings: read-out: logD
row,SMILES,logD
1,CC(C)(C)NC(=O)C1c2ccccc2C(=O)N1Cc1ccccc1-c1ccc(F)cc1 (stereo unspecified),4.8
2,CC(C)(C)NC(=O)C1c2ccccc2C(=O)N1Cc1ccc(F)cc1-c1ccc(F)cc1 (stereo unspecified),5
3,Cc1c(O)ccc2c1C(=O)N(Cc1ccccc1-c1ccc(F)cc1)C2C(=O)NC(C)(C)C (stereo unspecified),4.5
4,CCCCNC(=O)C1c2ccccc2C(=O)N1CC(C)c1ccc(Cl)cc1 (racemic),4.5
5,COc1ccc2c(c1)C(=O)N(Cc1ccccc1-c1ccccc1)C2C(=O)NC(C)(C)C (racemic),4.9
6,Cc1c(OC(F)F)ccc2c1C(=O)N(Cc1ccccc1-c1ccccc1)C2C(=O)NC(C)(C)C (racemic),5.9
7,Cc1c(O)ccc2c1C(=O)N(Cc1ccccc1-c1ccccc1)C2C(=O)NC(C)(C)C (racemic),4.4
8,CC(c1ccccc1)N1C(=O)c2ccccc2C1C(=O)NCc1ccccc1 (racemic),3.5
9,Cc1c(OS(C)(=O)=O)ccc2c1C(=O)N(Cc1ccccc1-c1ccccc1)C2C(=O)NC(C)(C)C (racemic),5.1
10,COCCOCCNC(=O)C1c2cc(F)ccc2C(=O)N1CC(C)c1ccc(Cl)cc1 (racemic),3.6
11,CC(C)(C)NC(=O)C1c2ccccc2C(=O)N1Cc1ccccc1-c1ccccc1 (racemic),4.7
12,CC(C)(C)NC(=O)C1c2ccc(C#N)cc2C(=O)N1Cc1ccccc1-c1ccccc1 (racemic),4.7
13,CC(C)(C)NC(=O)C1c2ccc(NS(C)(=O)=O)cc2C(=O)N1Cc1ccccc1-c1ccccc1 (racemic),4
14,CC(C)(C)NC(=O)C1c2ccc(O)cc2C(=O)N1Cc1ccccc1-c1ccccc1 (racemic),4
15,Cc1c(NS(C)(=O)=O)ccc2c1C(=O)N(Cc1ccccc1-c1ccccc1)C2C(=O)NC(C)(C)C (racemic),4.3
16,"CC(C)(CN1C(=O)c2ccccc2C1C(=O)NCCCF)c1ccc(Cl)cc1 (single isomer, unassigned; enantiomer 1)",4.2
17,"CCCNC(=O)C1c2ccccc2C(=O)N1CC(C)c1ccc(Cl)cc1 (single isomer, unassigned; isomer 1)",4.2

# Test system: not listed separately
# Assay: Solubility of the compound
# Type: physicochemical
# Settings: not given
row,SMILES,solubility [µM]
1,"CC(C)(CN1C(=O)c2ccccc2C1C(=O)NCCCF)c1ccc(Cl)cc1 (single isomer, unassigned; enantiomer 1)",83

# Test system: Liver microsome
# Assay: (§1) Intrinsic clearance in human liver microsomes
# Type: ADME
# Settings: microsomes
row,SMILES,CLH [µL/min/mg]
1,"Cc1c(O)ccc2c1C(=O)N(Cc1ccccc1-c1ccccc1)C2C(=O)NC(C)(C)C (single isomer, unassigned)",20
2,"Cc1c(O)ccc2c1C(=O)N(Cc1ccccc1-c1ccccc1)C2C(=O)NC(C)(C)C (single isomer, unassigned; enantiomer 2)",24

# Test system: not listed separately
# Assay: as §1
# Type: ADME
# Settings: liver microsomes, read-out: CLH
row,SMILES,microsomal CLint [µL/min/mg]
1,CC(C)(C)NC(=O)C1c2ccccc2C(=O)N1Cc1ccccc1-c1ccc(F)cc1 (stereo unspecified),53
2,CC(C)(C)NC(=O)C1c2ccccc2C(=O)N1Cc1ccc(F)cc1-c1ccc(F)cc1 (stereo unspecified),34
3,Cc1c(O)ccc2c1C(=O)N(Cc1ccccc1-c1ccc(F)cc1)C2C(=O)NC(C)(C)C (stereo unspecified),< 12
4,CCCCNC(=O)C1c2ccccc2C(=O)N1CC(C)c1ccc(Cl)cc1 (racemic),> 100
5,COc1ccc2c(c1)C(=O)N(Cc1ccccc1-c1ccccc1)C2C(=O)NC(C)(C)C (racemic),> 100
6,Cc1c(OC(F)F)ccc2c1C(=O)N(Cc1ccccc1-c1ccccc1)C2C(=O)NC(C)(C)C (racemic),> 100
7,Cc1c(O)ccc2c1C(=O)N(Cc1ccccc1-c1ccccc1)C2C(=O)NC(C)(C)C (racemic),< 12
8,O=C(NCc1ccncc1)C1c2ccccc2C(=O)N1Cc1ccccc1-c1ccccc1 (racemic),> 100
9,CC(C)(C)NC(=O)C1c2cc(Cl)ccc2C(=O)N1C(c1cccnc1)c1cccnc1 (racemic),62
10,CC(c1ccccc1)N1C(=O)c2ccccc2C1C(=O)NCc1ccccc1 (racemic),> 100
11,Cc1c(OS(C)(=O)=O)ccc2c1C(=O)N(Cc1ccccc1-c1ccccc1)C2C(=O)NC(C)(C)C (racemic),> 100
12,COCCOCCNC(=O)C1c2cc(F)ccc2C(=O)N1CC(C)c1ccc(Cl)cc1 (racemic),> 100
13,CC(c1ccccc1)N1C(=O)c2ccccc2C1C(=O)NC(C)(C)CO (racemic),34
14,CC(C)(C)NC(=O)C1c2ccccc2C(=O)N1Cc1ccccc1-c1ccccc1 (racemic),> 100
15,CC(C)(C)NC(=O)C1c2ccc(C#N)cc2C(=O)N1Cc1ccccc1-c1ccccc1 (racemic),> 100
16,CC(C)(C)NC(=O)C1c2ccc(NS(C)(=O)=O)cc2C(=O)N1Cc1ccccc1-c1ccccc1 (racemic),59
17,CC(C)(C)NC(=O)C1c2ccc(O)cc2C(=O)N1Cc1ccccc1-c1ccccc1 (racemic),> 100
18,Cc1c(NS(C)(=O)=O)ccc2c1C(=O)N(Cc1ccccc1-c1ccccc1)C2C(=O)NC(C)(C)C (racemic),88
19,"CC(C)(CN1C(=O)c2ccccc2C1C(=O)NCCCF)c1ccc(Cl)cc1 (single isomer, unassigned; enantiomer 1)",14
20,"CCCNC(=O)C1c2ccccc2C(=O)N1CC(C)c1ccc(Cl)cc1 (single isomer, unassigned; isomer 1)",99

# Test system: Mus musculus
# Assay: In vivo inhibition of Kv1.5 channel in BaLBc mouse assessed as unbound steady-state plasma concentration required to increase QT-interval by 30% at 20 umol/kg,iv for 15 mins
# Type: functional
# Settings: not given
row,SMILES,Activity [µM]
1,CC(C)(C)NC(=O)C1c2ccccc2C(=O)N1Cc1ccc(F)cc1-c1ccc(F)cc1 (stereo unspecified),0.9
2,"CC(C)(CN1C(=O)c2ccccc2C1C(=O)NCCCF)c1ccc(Cl)cc1 (single isomer, unassigned; enantiomer 1)",0.4
3,"CCCNC(=O)C1c2ccccc2C(=O)N1CC(C)c1ccc(Cl)cc1 (single isomer, unassigned; isomer 1)",0.5

# Test system: not listed separately
# Assay: Absolute bioavailability in rat
# Type: ADME, organism-based
# Settings: in vivo
row,SMILES,bioavailability [%]
1,"CC(C)(CN1C(=O)c2ccccc2C1C(=O)NCCCF)c1ccc(Cl)cc1 (single isomer, unassigned; enantiomer 1)",58
2,"CCCNC(=O)C1c2ccccc2C(=O)N1CC(C)c1ccc(Cl)cc1 (single isomer, unassigned; isomer 1)",81

# Test system: not listed separately
# Assay: Clearance in iv dosed rat
# Type: ADME, organism-based
# Settings: in vivo
row,SMILES,clearance [mL/min/kg]
1,"CC(C)(CN1C(=O)c2ccccc2C1C(=O)NCCCF)c1ccc(Cl)cc1 (single isomer, unassigned; enantiomer 1)",4.7
2,"CCCNC(=O)C1c2ccccc2C(=O)N1CC(C)c1ccc(Cl)cc1 (single isomer, unassigned; isomer 1)",7.8
